Laboratory results as given in BindingDB's records for doi:10.1016/j.bmcl.2007.01.077 (Yale University, 2007).

What was measured:
[1] = target: Signal transducer and activator of transcription 3 (Mus musculus, UniProt P42227); assay: Electrophoretic Mobility Shift Assay (EMSA); conditions: pH 7.8; 22 °C
Procedure: (§1) STAT proteins were expressed in Sf9 cells from a baculovirus encoding the recombinant protein. A nuclear extract of the Sf9 cells was incubated with 32P-labeled high affinity c-fos sis inducible element (hSIE) either alone or in the presence of inhibitor. After incubation, samples were electrophoresed on polyacrylamide gels. The gels were dried, exposed to a phosphorimager screen and scanned. IC50 values were derived from plots of spot intensity versus phosphopeptide concentration. The affinity of peptides to the SH2 domain is measured by the intensity of the radioactivity of the Stat-DNA complex band in the electrophoresis gel.

[2] = target: T1, Signal transducer and activator of transcription 1-alpha/beta (Homo sapiens, UniProt P42224); assay: Electrophoretic Mobility Shift Assay (EMSA); conditions: pH 7.8; 22 °C
T1 sequence (P42224 whole entry): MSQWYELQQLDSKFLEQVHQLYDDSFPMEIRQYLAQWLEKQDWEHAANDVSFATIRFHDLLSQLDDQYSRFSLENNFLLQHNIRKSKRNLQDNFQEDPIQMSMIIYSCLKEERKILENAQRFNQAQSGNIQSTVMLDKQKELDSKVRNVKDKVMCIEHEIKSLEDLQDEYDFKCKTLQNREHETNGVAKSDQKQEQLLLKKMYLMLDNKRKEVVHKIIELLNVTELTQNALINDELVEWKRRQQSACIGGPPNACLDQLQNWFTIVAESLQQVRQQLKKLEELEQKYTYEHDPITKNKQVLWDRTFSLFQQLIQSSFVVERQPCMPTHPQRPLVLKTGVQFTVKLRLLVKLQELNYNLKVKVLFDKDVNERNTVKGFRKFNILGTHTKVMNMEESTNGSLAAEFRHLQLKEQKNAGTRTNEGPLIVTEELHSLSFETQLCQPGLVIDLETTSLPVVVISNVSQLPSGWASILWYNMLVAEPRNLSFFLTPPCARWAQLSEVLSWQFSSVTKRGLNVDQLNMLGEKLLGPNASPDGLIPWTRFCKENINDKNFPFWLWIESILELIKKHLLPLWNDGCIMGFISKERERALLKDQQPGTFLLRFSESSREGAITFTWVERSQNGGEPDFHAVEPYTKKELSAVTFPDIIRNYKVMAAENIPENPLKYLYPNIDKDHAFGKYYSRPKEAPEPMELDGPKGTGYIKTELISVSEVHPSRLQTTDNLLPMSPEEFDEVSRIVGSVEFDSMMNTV
Procedure: as §1

Sequence of Signal transducer and activator of transcription 3 (P42227 whole entry, the tested form may be a part): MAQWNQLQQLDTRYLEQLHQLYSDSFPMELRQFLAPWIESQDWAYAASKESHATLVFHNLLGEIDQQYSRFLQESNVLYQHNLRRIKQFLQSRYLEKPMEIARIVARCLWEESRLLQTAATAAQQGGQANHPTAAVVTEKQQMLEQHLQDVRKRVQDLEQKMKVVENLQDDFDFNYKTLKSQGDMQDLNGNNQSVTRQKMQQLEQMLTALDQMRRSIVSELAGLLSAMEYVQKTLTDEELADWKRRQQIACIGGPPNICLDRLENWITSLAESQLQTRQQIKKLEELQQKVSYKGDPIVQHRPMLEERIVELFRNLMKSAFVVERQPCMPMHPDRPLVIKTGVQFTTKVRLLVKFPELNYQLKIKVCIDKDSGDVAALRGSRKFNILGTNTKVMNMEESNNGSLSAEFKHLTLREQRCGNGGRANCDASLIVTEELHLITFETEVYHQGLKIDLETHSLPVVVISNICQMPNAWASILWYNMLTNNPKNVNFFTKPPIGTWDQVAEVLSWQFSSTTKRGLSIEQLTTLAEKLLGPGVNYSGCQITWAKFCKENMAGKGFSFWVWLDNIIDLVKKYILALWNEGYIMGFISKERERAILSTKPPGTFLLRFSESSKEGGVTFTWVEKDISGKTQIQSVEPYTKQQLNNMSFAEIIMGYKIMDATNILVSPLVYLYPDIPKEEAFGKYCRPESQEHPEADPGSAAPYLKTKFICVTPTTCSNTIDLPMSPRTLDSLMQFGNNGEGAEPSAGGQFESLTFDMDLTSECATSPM

Q: How did the IC50 [1] turn out when `CC(C)C[C@H](NC(=O)[C@H](Cc1ccc(OP(=O)(O)O)cc1)NC(=O)c1ccc(C#N)cc1)C(=O)NC(C)C` [4-[(2S)-2-[(4-cyanophenyl)formamido]-2-{[(1S)-3-methyl-1-(propan-2-ylcarbamoyl)butyl]carbamoyl}ethyl]phenoxyphosphonic acid] was run?
A: The IC50 was 760 µM.

Q: And the IC50 [2]?
A: The IC50 was 58 µM.
